These results are taken from US4594357A, “Depot antiinflammatory agents” (Troponwerke GmbH & Co., priority 1983, dated 1986).

Series [1] concerns oedema of the rat paw induced by carrageenan. The series can be described thus: carrageenan-induced rat paw oedema (oedema inhibition). In kind it is in vivo, rat (male, strain Bor: WISW (SPF-Cpb)). As to conditions: for % Inhibition after depot acid: i.m. 15 mg/kg as an oily solution; for Oedema inhibition: rat. How it is done:
The oedema-inhibiting and analgesic action of the test substances following intramuscular administration of an appropriate depot formulation was determined with the aid of oedema of the rat paw induced by carrageenan or by means of the Randall-Selitto test [Arch. int. Pharmacodyn. 111, 409 (1957)].
The experiments were carried out on male rats [strain: Bor: WISW (SPF-Cpb), weight about 200 g]. A depot product was administered once intramuscularly to the animals and the antiinflammatory action on the following days was tested by inducing carrageenan oedema. In each case three groups or 5 animals each were investigated per day, the first group consisting of 5 untreated animals, the 2nd group of 5 animals treated only with solvent (for example viscoleo) and the 3rd group of 5 animals treated with depot product (for example 2-(2-hydroxyethoxy)-ethyl-N(α,α,α-trifluoro-m-tolyl)anthranilate (formula 11) in viscoleo).
The paw volumes were measured by the method of F. Kemper and G. Ameln [Z. ges. exp. Med. 131, 407 (1959)], the difference between the paw volumes 5 hours after oedema provocation and the normal paw volume giving the oedema volume. The analgesic action was determined via pressure pain [Randall-Selitto, see above].
The inhibition of the carrageenan oedema following intramuscular administration of 2-(2-hydroxyethoxy)-ethyl N-(α,α,α-trifluoro-m-tolyl)-anthranilate (formula 11) in viscoleo after various doses in a constant administration volume of 0.03 ml (rat) is as follows: […]

Series [2] can be described thus: half-life for elimination from the tissue (site of administration). The note with it: tissue at administration site, im; rat, i.m. administration in oily solution; read-out: HL for elimination from the tissue (site of administration) (converted). In kind it is in vivo. How it is done: (§1) It was possible to determine the biological half-life (HL) of the compound 11 in rats from the inflamed tissue by means of gas chromatography [H.-D. Dell, J. Fielder, H. Jacobi and J. Kolle, Arzneim.-Forsch./Drug.Res 31, 17-21 (1981)]. The HL from the tissue is about 8.5 hours. In contrast, an HL of 1.29 days is determined for elimination from the tissue (site of administration) following intramuscular administration of 11 in oily solution.

Series [3] relates to oedema of the rat paw induced by carrageenan. The note with it: carrageenan model, cited from earlier work.
The nature of series [4]: biological half-life from the inflamed tissue by gas chromatography. In kind it is in vivo. The note with it: rat, read-out: biological half-life (HL) from the inflamed tissue (converted). Here is the method: as §1

Turning to `O=C(O)c1ccccc1Nc1cccc(C(F)(F)F)c1` [formula 1, N--(α,α,α-Trifluoro-m-tolyl)-anthranilic acid], the “% Inhibition after depot acid” value in series [1] (1 day after injection) came out at 53.8%; in series [1] (2 days after injection) it was 46.5%; in series [1] (3 days after injection) it was 34.3%; in series [1] (4 days after injection), 37.1%; in series [1] (5 days after injection) it was 26.8%.
As for `O=C(O)c1cccnc1Nc1cccc(C(F)(F)F)c1` [formula 6, 2-(α,α,α-Trifluoro-m-toluidino)-nicotinic acid], the “% Inhibition after depot acid” value in series [1] (1 day after injection) is reported as 57.0%; in series [1] (2 days after injection) it was 35.2%; in series [1] (3 days after injection) it was 35.5%; in series [1] (4 days after injection) it was 11.5%.
Take `CCCCOC(=O)c1ccccc1Nc1cccc(C(F)(F)F)c1` [formula 13, butyl N-(α,α,α-trifluoro-m-tolyl)-anthranilate]: the Oedema inhibition is reported as 53.8% in series [1] (formula 13 in viscoleo, single i.m. 15 mg/kg, 1 day after administration); 46.5% in series [1] (formula 13 in viscoleo, single i.m. 15 mg/kg, 2 days after administration); 34.3% in series [1] (formula 13 in viscoleo, single i.m. 15 mg/kg, 3 days after administration); 37.1% in series [1] (formula 13 in viscoleo, single i.m. 15 mg/kg, 4 days after administration); 28.8% in series [1] (formula 13 in viscoleo, single i.m. 15 mg/kg, 5 days after administration).
For `O=C(OCCOCCO)c1ccccc1Nc1cccc(C(F)(F)F)c1` [formula 11, 2-(2-hydroxyethoxy)-ethyl N-(α,α,α-trifluoro-m-tolyl)-anthranilate], the half-life in series [2] is 31 h; in series [4], roughly 8.5 h. Also, the Oedema inhibition in series [1] (10.5 mg/kg, single i.m., in viscoleo, 1 day after injection) turned out to be 64.0%; in series [1] (10.5 mg/kg, single i.m., in viscoleo, 2 days after injection), 61.1%; in series [1] (10.5 mg/kg, single i.m., in viscoleo, 3 days after injection) it was 36.6%; in series [1] (10.5 mg/kg, single i.m., in viscoleo, 4 days after injection), 41.6%; in series [1] (15 mg/kg, single i.m., in viscoleo, 1 day after injection) it was 77.6%; in series [1] (15 mg/kg, single i.m., in viscoleo, 2 days after injection), 72.2%. Moreover, the Oedema inhibition was found to be 55.5% in series [1] (15 mg/kg, single i.m., in viscoleo, 3 days after injection); 51.3% in series [1] (15 mg/kg, single i.m., in viscoleo, 4 days after injection); 77.6% in series [1] (19.5 mg/kg, single i.m., in viscoleo, 1 day after injection); 81.3% in series [1] (19.5 mg/kg, single i.m., in viscoleo, 2 days after injection); 61.6% in series [1] (19.5 mg/kg, single i.m., in viscoleo, 3 days after injection); 52.1% in series [1] (19.5 mg/kg, single i.m., in viscoleo, 4 days after injection). In addition, in series [3] (about 24 hours), the “duration of oedema inhibition after peroral administration” value was “corresponds to the control value after about 24 hours”. Further, the “oedema inhibition after peroral administration” value in series [3] is “powerful oedema inhibition”.
